{"source": "patent US20240335539A1", "about": "“MODULATION OF BCL-2 TO ENHANCE CHIMERIC ANTIGEN RECEPTOR CANCER IMMUNOTHERAPY EFFICACY” (The Trustees of the University of Pennsylvania, priority 2021, published 2024)", "key": {"CART19-BCL-2(WT)": {"test_system": "CART19-BCL-2(WT)", "assay": "In vitro venetoclax CART cell toxicity assay", "format": "cell-based", "settings": "Homo sapiens; venetoclax on CART19-BCL-2(WT); long-term in vitro assay; n=3 donors; read-out: average IC50 value (CART cell survival)", "description": "CART cells were combined with target cancer cells at an E:T ratio of 0.25:1, and co-cultures were evaluated for absolute count of T cells and cancer cells by flow cytometry using CountBright absolute counting beads (ThermoFisher) every three days. Cultures were maintained at a concentration of 1×10^6 total cells/mL. To monitor their differentiation status, CART cells were harvested on day 0, 9, and 18. Next, CART cells were stained with anti-CCR7 and anti-CD45RA antibodies for flow cytometric analysis. CART cells were re-stimulated by PMA/Ionomycin on day 18 after initial stimulation in order to evaluate the anti-tumor activity of long-survived CART cells.\nCorrect expression of the transgenes in target cells was confirmed by intracellular staining for CAR19 and BCL-2 using flow cytometry (FIG. 10B). […] Additionally, venetoclax CART cell toxicity assays were performed to evaluate whether the mutant BCL-2 could provide resistance to venetoclax."}, "NALM6 [1]": {"test_system": "NALM6", "assay": "Targeted pro-apoptotic small molecule screening with CART19 against NALM6, killing by luminescence at 48 hours", "settings": "drug 100 and 1000 nM with CART19", "experimental": "Killing of NALM6 cells was quantified at 48 hours by luminescence. Drug screening of pro-apoptotic small molecules was performed with two concentrations (100 and 1000 nM). […] Two concentrations of 29 drugs were used (100 nM and 1000 nM). Killing of NALM6 cells was assessed at 48 hours by luminescence. […] UTD: untransduced T cells; CART19: anti-CD19 CAR T cell; MCL: mantle cell lymphoma; E:T=ratio of effector to target; IAP: Inhibition of apoptosis protein.\nCART19 and NALM6 (luciferase+) cells were seeded at a ratio of 0.08E:1T (i.e., 600 CART: 7000 NALM6) per well in 25 μl of growth medium (RPMI1640+10% FBS+1% Pen-strep+1% glutamine) of 384-well Corning 3570 microplate using a Multidrop™ Combi Reagent Dispenser (Thermo Scientific). Following cell seeding, drugs (50 nL) were transferred to assay plates using a 50 nL slotted pin tool (V&P Scientific) and a JANUS Automated Workstation (Perkin Elmer). Compounds/drugs were added to a final concentration of 1 μM in 0.2% DMSO. Columns 1 and 23 were treated with 0.2% DMSO (negative control). […] Luminescence was measured on an EnVision Xcite Multilabel Plate Reader (PerkinElmer), using the ultrasensitive luminescence measurement technology.\nIn order to screen pro-apoptotic small molecules that can enhance CART cell killing, a targeted screening assay was performed. […] Tumor killing was measured by luminescence at 48 hours."}, "NALM6 [2]": {"test_system": "NALM6", "assay": "NALM6 xenograft model", "format": "in vivo", "settings": "CART19 with or without venetoclax 100 mg/kg daily, oral gavage for five weeks", "description": "Either venetoclax (100 mg/kg) or vehicle were administered to the mice via oral gavage daily. To monitor the survival of CART in vivo, mouse blood ([…]) was collected from submandibular vein of mouse on day 15 after CART infusion and measured the absolute number of human CD3+ T cells in mouse blood using flow cytometry. Tumor volume was monitored by measuring luminescen intensity in mouse by IVIS system. […] One-way ANOVA with post-hoc Tukey test was performed. […] All data represent mean±SD. *P<0.05. ns: not significant. UTD: untransduced T cell. CART19: anti-CD19 CAR T cell. CART19-BCL2(WT): BCL-2(WT) overexpressing anti-CD19 CAR T cell.\nAll data represent mean±SD.\nTo investigate this hypothesis, the expansion and persistence of CART19 cells in the peripheral blood of NSG mice treated with CART19 plus venetoclax or CART19 alone was analyzed using flow cytometry. […] To test whether prolonged exposure to venetoclax leads to CART cell toxicity, an in vitro venetoclax toxicity assay was performed using CART cells manufactured from 8 different T cell donors. […] In order to discern whether the reduced survival was due to increased apoptosis or reduction of proliferation, the caspase 3/7 activity in CART19 was assessed in the presence or absence of venetoclax. […]"}, "[3]": {"test_system": "mantle cell lymphoma (MCL)", "assay": "Clinical outcomes of MCL patients after brexucabtagene autoleucel by venetoclax bridging therapy", "format": "in vivo, human", "description": "FIGS. 13A-13H illustrate the finding that chromosomal alterations of BCL-2 in lymphoma patients associate with poor prognosis of CART therapy. FIG. 13A is a schematic of the strategy used herein to investigate whether genetic alteration of BCL-2 affects CART's anti-tumor clinical response. Pre-CART biopsies from patients with LCL were analyzed by fluorescence in situ hybridization (FISH) to search for BCL-2 chromosomal aberration. […] FIG. 13F is a schematic of the strategy used herein to investigate the impact of venetoclax bridging therapy on CART19's clinical response in MCL patients. […]\nFor the large B cell lymphoma cohort, clinical data were collected from patients diagnosed with DLBCL not otherwise specified (NOS), high-grade B cell lymphoma (HGBCL) NOS, HGBCL with MYC and BCL-2 and/or BCL-6 rearrangements, and transformed follicular lymphoma treated at the University of Pennsylvania using two commercial CART19 products (tisagenlecleucel or axicabtagene ciloleucel, UPCC44420) or enrolled in the CTL019 clinical trial NCT02030834. Only patients evaluated for chromosomal alterations involving the BCL-2 locus by interim FISH analysis were included in the current study. […] Disease response was determined according to Lugano classification. […]"}, "MINO": {"test_system": "MINO", "assay": "MINO xenograft model", "settings": "venetoclax 50 mg/Kg", "experimental": "For the MINO model, CART cells (5×10^4) were infused 14 days after luciferase+MINO cells were implanted (i.v. injection). […] Either vehicle or venetoclax (50 mg/kg/daily) was administrated for 5 weeks via oral gavage. […] All data represent mean±SD.\nCART cells (5×10^4) were infused 14 days after luciferase+MINO cell i.v. injection. […] All data represent mean±SD. One-way ANOVA with posthoc Tukey tests was performed for all comparisons.\nSix- to 10-week-old NOD SCID γ chain −/− (NSG) mice were obtained from the Stem Cell & Xenograft Core at the University of Pennsylvania and maintained in pathogen-free conditions. […] For the systemic tumor model, 1×10^6 of either NALM6 or MINO were administrated to NSG mice by tail vein injection."}}}
{"smiles": "CC1(C)CCC(CN2CCN(c3ccc(C(=O)NS(=O)(=O)c4ccc(NCC5CCOCC5)c([N+](=O)[O-])c4)c(Oc4cnc5[nH]ccc5c4)c3)CC2)=C(c2ccc(Cl)cc2)C1", "note": "[venetoclax]", "values": [{"measurement": "IC50", "setting": "CART19-BCL-2(WT)", "result": 0.998, "unit": "µM"}, {"measurement": "Enhancement of CART19 killing / CART cell cytotoxicity", "setting": "NALM6 [1]", "result": "strong enhancement of CART19 killing"}, {"measurement": "Mice showing tumor relapse", "setting": "NALM6 [2]", "result": 40, "unit": "%"}, {"measurement": "complete response rate after brex-cel", "setting": "[3]; bridging therapy including venetoclax (7/8)", "result": 87.5, "unit": "%"}, {"measurement": "patients in complete response at one year", "setting": "[3]; venetoclax bridging therapy before brex-cel", "result": 100, "unit": "%"}, {"measurement": "Toxicity to CART cells in vivo", "setting": "MINO", "result": "toxic to CART19"}]}
